Experimental data from patent US7045315B2, “Methods for modulating expression of exogenous genes in mammalian systems” (The Salk Institute for Biological Studies, priority 1998, dated 2006).

Columns and labels:
Assay type in all cases: cell-based
[1] = system: GEcR (modified ecdysone receptor); test: Transient transfection reporter assay in CV-1 cells, modified ecdysone receptor GEcR; conditions: 1 μM muristerone A vs ethanol; CV-1 cells transfected with CMX-GEcR; FIG. 1A
Procedure: (§1) CV-1 cells were maintained in DMEM supplemented with 10% Fetal Bovine Serum. Transient transfections were performed using DOTAP transfection reagent (Boehringer-Mannheim). Transfections using β-galactosidase as the reporter were assayed either by Galactolight luminescent assay (Tropix, Bedford, Mass.) or by standard liquid ONPG assay (Sigma, St. Louis, Mo). The values were normalized by co-transfection of CMX-luciferase. Transfections using luciferase as the reporter were assayed by standard techniques using luciferin and ATP. These values were normalized by co-transfection of CMX-β-galactosidase. Hormone treated cells were treated with ethanol, 50 μM Juvenile Hormone III (Sigma), 1 μM muristerone A (Zambon, Bresso, IT), or 1 μM dexamethasone (Sigma) unless otherwise noted.
(§2) To maximize the sensitivity of the invention ecdysone inducible system, modifications of the ecdysone receptor were made. The N-terminal transactivation domain of the ecdysone receptor was replaced by the corresponding domain of the glucocorticoid receptor (GR), resulting in the modified ecdysone receptor GEcR (See FIG. 1D). CV-1 cells were transfected with the plasmid CMX-GEcR encoding the modified ecdysone receptor as discussed above. […]

[2] = molecular target: T1, ecdysone receptor heterodimer with retinoid X receptor (RXR) (Drosophila melanogaster, UniProt P34021); test: Transient transfection reporter assay in CV-1 cells, USP replaced by RXR; conditions: 1 μM muristerone A, FIG. 1A
T1 construct: expressed in transfected cells; host or cells: CV-1 cells
T1 sequence (P34021 1-878): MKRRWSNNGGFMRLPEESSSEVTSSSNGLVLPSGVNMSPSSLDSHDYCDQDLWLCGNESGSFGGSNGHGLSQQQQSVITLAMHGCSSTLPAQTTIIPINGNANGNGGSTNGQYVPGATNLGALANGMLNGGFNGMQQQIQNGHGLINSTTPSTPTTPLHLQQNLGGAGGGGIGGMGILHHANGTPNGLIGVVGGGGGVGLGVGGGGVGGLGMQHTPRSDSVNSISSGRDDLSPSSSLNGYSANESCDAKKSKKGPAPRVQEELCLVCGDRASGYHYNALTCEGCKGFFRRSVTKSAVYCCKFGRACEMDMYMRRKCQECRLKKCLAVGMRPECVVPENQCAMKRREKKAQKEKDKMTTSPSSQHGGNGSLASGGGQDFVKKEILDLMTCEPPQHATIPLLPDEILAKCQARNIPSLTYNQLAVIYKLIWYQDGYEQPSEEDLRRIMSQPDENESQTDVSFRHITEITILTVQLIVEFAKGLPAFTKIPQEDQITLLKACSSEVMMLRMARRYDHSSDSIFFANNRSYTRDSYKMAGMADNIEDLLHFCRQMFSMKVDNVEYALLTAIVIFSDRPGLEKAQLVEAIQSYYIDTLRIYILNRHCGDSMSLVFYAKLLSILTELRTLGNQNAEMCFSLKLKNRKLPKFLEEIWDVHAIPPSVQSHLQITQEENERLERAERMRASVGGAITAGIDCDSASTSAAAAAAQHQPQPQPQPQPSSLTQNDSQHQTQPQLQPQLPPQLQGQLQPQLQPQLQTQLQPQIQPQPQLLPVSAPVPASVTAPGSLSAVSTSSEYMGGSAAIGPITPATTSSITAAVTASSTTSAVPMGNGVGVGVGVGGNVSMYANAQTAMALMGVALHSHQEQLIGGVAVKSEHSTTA
T1 sequence (P19793 1-462 partner): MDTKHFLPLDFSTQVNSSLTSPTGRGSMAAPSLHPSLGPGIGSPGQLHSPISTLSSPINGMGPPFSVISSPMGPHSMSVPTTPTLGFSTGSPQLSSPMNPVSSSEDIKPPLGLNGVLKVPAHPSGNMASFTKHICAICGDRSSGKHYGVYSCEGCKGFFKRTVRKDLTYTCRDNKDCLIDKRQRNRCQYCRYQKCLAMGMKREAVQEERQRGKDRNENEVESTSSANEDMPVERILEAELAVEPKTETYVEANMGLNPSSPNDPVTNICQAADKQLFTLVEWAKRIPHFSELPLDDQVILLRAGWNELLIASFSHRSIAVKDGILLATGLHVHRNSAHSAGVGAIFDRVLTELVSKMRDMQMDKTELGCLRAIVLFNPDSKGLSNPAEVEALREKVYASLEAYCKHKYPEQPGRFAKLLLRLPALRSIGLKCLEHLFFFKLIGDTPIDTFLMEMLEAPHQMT
Procedure: as §1, §2

VgEcR/RXR heterodimer = test: Assay for inducer effectiveness on the ecdysone-inducible expression system (E/GRE4-ΔMTV-Luc reporter, CV-1 cells); conditions: for ability to activate the expression system in the further presence of an RXR agonist: diacylhydrazine plus LG1000268 vs alone, FIG. 4
Procedure: CV-1 cells were maintained in DMEM supplemented with 10% fetal bovine serum. Transfections were performed using the Dotap transfection reagent (Boehringer Mannheim). All candidate inducers were dissolved in either ethanol or DMSO. Muristerone A (MurA) was used as a positive control for activation. All transfections were performed in triplicate.
The E/GRE4-ΔMTV-Luc plasmid is routinely used as a reporter. […] A CMX-β-gal reporter plasmid was included in the transfection as a control for transfection efficiency. Approximately 10 hours after transfection, the media was removed and replaced with fresh media containing varying concentrations of the putative inducers. Cells were exposed to candidate activators for 20–48 hours, then assayed for luciferase and β-galactosidase activity employing standard techniques. Luciferase values were normalized using β-galactosidase activity levels.

[3] = molecular target: T2, ecdysone receptor (EcR) with USP (Drosophila melanogaster, UniProt P34021); test: Transient transfection reporter assay in CV-1 cells, ecdysone receptor with USP; conditions: 1 μM muristerone A vs ethanol, unmodified ecdysone receptor, FIG. 1A
T2 construct: expressed in transfected cells; host or cells: CV-1 cells
T2 sequence (P34021 1-878): T1 sequence (P34021 1-878)
T2 sequence (P20153 1-508 partner): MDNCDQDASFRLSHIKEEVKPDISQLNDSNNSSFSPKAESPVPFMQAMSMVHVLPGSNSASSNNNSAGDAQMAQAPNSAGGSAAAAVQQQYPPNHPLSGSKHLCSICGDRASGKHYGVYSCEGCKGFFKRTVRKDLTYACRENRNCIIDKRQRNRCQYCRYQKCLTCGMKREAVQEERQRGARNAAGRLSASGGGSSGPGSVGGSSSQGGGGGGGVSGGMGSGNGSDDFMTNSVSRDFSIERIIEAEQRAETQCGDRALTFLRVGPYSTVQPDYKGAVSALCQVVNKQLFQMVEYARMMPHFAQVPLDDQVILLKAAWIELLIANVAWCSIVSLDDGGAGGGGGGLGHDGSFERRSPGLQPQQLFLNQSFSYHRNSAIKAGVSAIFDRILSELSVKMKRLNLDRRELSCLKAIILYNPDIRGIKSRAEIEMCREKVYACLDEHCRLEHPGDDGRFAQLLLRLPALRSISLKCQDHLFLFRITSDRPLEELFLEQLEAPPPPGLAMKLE
Procedure: as §1, §2

[4] = system: RXR and VpEcR heterodimer; test: Transient transfection reporter assay in CV-1 cells, RXR and VpEcR; conditions: 1 μM muristerone A, FIG. 1A
Procedure: as §1

| SMILES | muristerone responsiveness (fold induction of reporter) [1] [fold] | fold induction of reporter [2] [fold] | activation of the ecdysone-inducible system, combination with RXR ligand (VgEcR/RXR heterodimer; MurA concentration varied, LG1000268 constant 100 nM, FIG. 3) | activation of the ecdysone-inducible system, ligand alone (VgEcR/RXR heterodimer; ligand alone over several concentrations, luciferase normalized to β-galactosidase, FIG. 3) | muristerone responsiveness (fold induction of reporter) [3] [fold] | fold induction of reporter [4] [fold] | ability to activate the expression system in the further presence of an RXR agonist (VgEcR/RXR heterodimer) |
| --- | --- | --- | --- | --- | --- | --- | --- |
| CC(C)CC[C@@H](O)[C@](C)(O)[C@H]1CC[C@@]2(O)C3=CC(=O)[C@]4(O)C[C@@H](O)[C@@H](O)C[C@]4(C)[C@H]3[C@H](O)C[C@]12C [muristerone A] | 11 | 34 | dramatically enhances the activation | effective inducer | 3 | 212 |  |
| CCc1ccc(C(=O)NN(C(=O)c2cc(C)cc(C)c2)C(C)(C)C)cc1 [N′-(3,5-dimethylbenzoyl)-N-(4-ethylbenzoyl)-N′-(tert-butyl) hydrazine] |  |  |  |  |  |  | enhanced ability |
| Cc1cc(C)cc(C(=O)N(NC(=O)c2ccc3c(c2C)OCCO3)C(C)(C)C)c1 [N′-(3,5-dimethylbenzoyl)-N-(2-methyl-3,4-(ethylenedioxy)-benzoyl)-N′-(tert-butyl) hydrazine] |  |  |  |  |  |  | enhanced ability |
